Test system: mice
Assay: Neuropharmacological Assay (SmartCube)
Assay type: in vivo
Settings: for minimal effective dose: Mus musculus, MED = dose having 50% or more total activity in SmartCube, read-out: POTENCY (minimal effective dose, MED); for AD: ADHD (SmartCube probability) / AG: analgesic (SmartCube probability) / AX: anxiolytic (SmartCube probability) / CE: cognitive enhancer (SmartCube probability) / DP: anti-depressant (SmartCube probability) / MS: mood stabilizer (SmartCube probability) / PS: anti-psychotic (SmartCube probability) / SD: sedative hypnotic (SmartCube probability) / UN: uncharacterized CNS activity (SmartCube probability): mice, i.p. 15 min before test, most efficacious dose(s) of 3 doses
Outline: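 Behavior of treated mice captured by digital video and matched algorithmically against reference drug classes, yielding a class probability at the most efficacious of 3 i.p. doses (15 min pretreatment, NMP/PEG/propylene glycol vehicle). Potency given as MED, the mpk dose reaching ≥50% total activity across usually 0.3–30 mpk.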

SMILES: CNC[C@@H]1OCc2cccc(F)c21 [Example 69, (R)-1-(7-fluoro-1,3-dihydroisobenzofuran-1-yl)-N-methylmethanamine]
- minimal effective dose: < 3 mg/kg
- AD: ADHD (SmartCube probability): ++ (5%≤ ++ <25%)
- AG: analgesic (SmartCube probability): +++ (25%≤ +++ <50%)
- AX: anxiolytic (SmartCube probability): ++ (5%≤ ++ <25%)
- CE: cognitive enhancer (SmartCube probability): + (LOQ≤ + <5%)
- DP: anti-depressant (SmartCube probability): ++ (5%≤ ++ <25%)
- MS: mood stabilizer (SmartCube probability): ++ (5%≤ ++ <25%)
- PS: anti-psychotic (SmartCube probability): ++ (5%≤ ++ <25%)
- SD: sedative hypnotic (SmartCube probability): + (LOQ≤ + <5%)
- UN: uncharacterized CNS activity (SmartCube probability): ++++ (50%≤ ++++)

SMILES: NC[C@H]1OCCc2cccc(Cl)c21 [Example 70, (S)-(8-chloroisochroman-1-yl)methanamine]
- minimal effective dose: 3 to 10 mg/kg
- AD: ADHD (SmartCube probability): + (LOQ≤ + <5%)
- AG: analgesic (SmartCube probability): ++ (5%≤ ++ <25%)
- AX: anxiolytic (SmartCube probability): ++ (5%≤ ++ <25%)
- CE: cognitive enhancer (SmartCube probability): ++ (5%≤ ++ <25%)
- DP: anti-depressant (SmartCube probability): ++ (5%≤ ++ <25%)
- MS: mood stabilizer (SmartCube probability): + (LOQ≤ + <5%)
- PS: anti-psychotic (SmartCube probability): +++ (25%≤ +++ <50%)
- SD: sedative hypnotic (SmartCube probability): ++ (5%≤ ++ <25%)
- UN: uncharacterized CNS activity (SmartCube probability): +++ (25%≤ +++ <50%)

SMILES: NC[C@@H]1OCCc2cccc(Cl)c21 [Example 71, (R)-(8-chloroisochroman-1-yl)methanamine]
- minimal effective dose: < 3 mg/kg
- AD: ADHD (SmartCube probability): + (LOQ≤ + <5%)
- AG: analgesic (SmartCube probability): ++ (5%≤ ++ <25%)
- AX: anxiolytic (SmartCube probability): ++ (5%≤ ++ <25%)
- CE: cognitive enhancer (SmartCube probability): ++ (5%≤ ++ <25%)
- DP: anti-depressant (SmartCube probability): + (LOQ≤ + <5%)
- MS: mood stabilizer (SmartCube probability): + (LOQ≤ + <5%)
- PS: anti-psychotic (SmartCube probability): ++ (5%≤ ++ <25%)
- SD: sedative hypnotic (SmartCube probability): + (LOQ≤ + <5%)
- UN: uncharacterized CNS activity (SmartCube probability): ++++ (50%≤ ++++)

SMILES: Cc1cccc2c1CCO[C@@H]2CN [Example 72, (S)-(5-methylisochroman-1-yl)methanamine]
- minimal effective dose: 3 to 10 mg/kg
- AD: ADHD (SmartCube probability): + (LOQ≤ + <5%)
- AG: analgesic (SmartCube probability): + (LOQ≤ + <5%)
- AX: anxiolytic (SmartCube probability): ++ (5%≤ ++ <25%)
- CE: cognitive enhancer (SmartCube probability): + (LOQ≤ + <5%)
- DP: anti-depressant (SmartCube probability): ++ (5%≤ ++ <25%)
- MS: mood stabilizer (SmartCube probability): + (LOQ≤ + <5%)
- PS: anti-psychotic (SmartCube probability): + (LOQ≤ + <5%)
- SD: sedative hypnotic (SmartCube probability): + (LOQ≤ + <5%)
- UN: uncharacterized CNS activity (SmartCube probability): +++ (25%≤ +++ <50%)

SMILES: Cc1cccc2c1CCO[C@H]2CN [Example 73, (R)-(5-methylisochroman-1-yl)methanamine]
- minimal effective dose: < 3 mg/kg
- AD: ADHD (SmartCube probability): + (LOQ≤ + <5%)
- AG: analgesic (SmartCube probability): + (LOQ≤ + <5%)
- AX: anxiolytic (SmartCube probability): ++ (5%≤ ++ <25%)
- CE: cognitive enhancer (SmartCube probability): ++ (5%≤ ++ <25%)
- DP: anti-depressant (SmartCube probability): +++ (25%≤ +++ <50%)
- MS: mood stabilizer (SmartCube probability): + (LOQ≤ + <5%)
- PS: anti-psychotic (SmartCube probability): + (LOQ≤ + <5%)
- SD: sedative hypnotic (SmartCube probability): ++ (5%≤ ++ <25%)
- UN: uncharacterized CNS activity (SmartCube probability): ++++ (50%≤ ++++)

SMILES: Cc1cccc2c1[C@@H](CN)OCC2 [Example 74, (S)-(8-methylisochroman-1-yl)methanamine]
- minimal effective dose: 10 to 30 mg/kg
- AD: ADHD (SmartCube probability): + (LOQ≤ + <5%)
- AG: analgesic (SmartCube probability): + (LOQ≤ + <5%)
- AX: anxiolytic (SmartCube probability): ++ (5%≤ ++ <25%)
- CE: cognitive enhancer (SmartCube probability): + (LOQ≤ + <5%)
- DP: anti-depressant (SmartCube probability): + (LOQ≤ + <5%)
- MS: mood stabilizer (SmartCube probability): + (LOQ≤ + <5%)
- PS: anti-psychotic (SmartCube probability): + (LOQ≤ + <5%)
- SD: sedative hypnotic (SmartCube probability): ++ (5%≤ ++ <25%)
- UN: uncharacterized CNS activity (SmartCube probability): +++ (25%≤ +++ <50%)

SMILES: Cc1cccc2c1[C@H](CN)OCC2 [Example 75, (R)-(8-methylisochroman-1-yl)methanamine]
- minimal effective dose: 3 to 10 mg/kg
- AD: ADHD (SmartCube probability): + (LOQ≤ + <5%)
- AG: analgesic (SmartCube probability): ++ (5%≤ ++ <25%)
- AX: anxiolytic (SmartCube probability): ++ (5%≤ ++ <25%)
- CE: cognitive enhancer (SmartCube probability): ++ (5%≤ ++ <25%)
- DP: anti-depressant (SmartCube probability): ++ (5%≤ ++ <25%)
- MS: mood stabilizer (SmartCube probability): + (LOQ≤ + <5%)
- PS: anti-psychotic (SmartCube probability): ++ (5%≤ ++ <25%)
- SD: sedative hypnotic (SmartCube probability): + (LOQ≤ + <5%)
- UN: uncharacterized CNS activity (SmartCube probability): ++++ (50%≤ ++++)

SMILES: CNC[C@H]1OCCc2c1cccc2C(F)(F)F [Example 78, (S)-N-methyl-1-(5-(trifluoromethyl)isochroman-1-yl)-methanamine]
- minimal effective dose: 10 to 30 mg/kg
- AD: ADHD (SmartCube probability): + (LOQ≤ + <5%)
- AG: analgesic (SmartCube probability): ++ (5%≤ ++ <25%)
- AX: anxiolytic (SmartCube probability): ++ (5%≤ ++ <25%)
- CE: cognitive enhancer (SmartCube probability): + (LOQ≤ + <5%)
- DP: anti-depressant (SmartCube probability): ++ (5%≤ ++ <25%)
- MS: mood stabilizer (SmartCube probability): + (LOQ≤ + <5%)
- PS: anti-psychotic (SmartCube probability): + (LOQ≤ + <5%)
- SD: sedative hypnotic (SmartCube probability): + (LOQ≤ + <5%)
- UN: uncharacterized CNS activity (SmartCube probability): ++++ (50%≤ ++++)

SMILES: CNC[C@@H]1OCCc2c1cccc2C(F)(F)F [Example 79]
- minimal effective dose: < 3 mg/kg
- AD: ADHD (SmartCube probability): ++ (5%≤ ++ <25%)
- AG: analgesic (SmartCube probability): + (LOQ≤ + <5%)
- AX: anxiolytic (SmartCube probability): + (LOQ≤ + <5%)
- CE: cognitive enhancer (SmartCube probability): + (LOQ≤ + <5%)
- DP: anti-depressant (SmartCube probability): ++++ (50%≤ ++++)
- MS: mood stabilizer (SmartCube probability): + (LOQ≤ + <5%)
- PS: anti-psychotic (SmartCube probability): + (LOQ≤ + <5%)
- SD: sedative hypnotic (SmartCube probability): ++ (5%≤ ++ <25%)
- UN: uncharacterized CNS activity (SmartCube probability): + (LOQ≤ + <5%)

SMILES: CNC[C@H]1OCCc2cc(Cl)ccc21 [Example 80, (S)-1-(6-chloroisochroman-1-yl)-N-methylmethanamine]
- minimal effective dose: 10 to 30 mg/kg
- AD: ADHD (SmartCube probability): + (LOQ≤ + <5%)
- AG: analgesic (SmartCube probability): + (LOQ≤ + <5%)
- AX: anxiolytic (SmartCube probability): ++ (5%≤ ++ <25%)
- CE: cognitive enhancer (SmartCube probability): ++ (5%≤ ++ <25%)
- DP: anti-depressant (SmartCube probability): ++ (5%≤ ++ <25%)
- MS: mood stabilizer (SmartCube probability): + (LOQ≤ + <5%)
- PS: anti-psychotic (SmartCube probability): +++ (25%≤ +++ <50%)
- SD: sedative hypnotic (SmartCube probability): + (LOQ≤ + <5%)
- UN: uncharacterized CNS activity (SmartCube probability): + (LOQ≤ + <5%)

SMILES: CNC[C@@H]1OCCc2cc(Cl)ccc21 [Example 81, (R)-1-(6-chloroisochroman-1-yl)-N-methylmethanamine]
- minimal effective dose: < 3 mg/kg
- AD: ADHD (SmartCube probability): ++ (5%≤ ++ <25%)
- AG: analgesic (SmartCube probability): + (LOQ≤ + <5%)
- AX: anxiolytic (SmartCube probability): ++ (5%≤ ++ <25%)
- CE: cognitive enhancer (SmartCube probability): + (LOQ≤ + <5%)
- DP: anti-depressant (SmartCube probability): ++++ (50%≤ ++++)
- MS: mood stabilizer (SmartCube probability): + (LOQ≤ + <5%)
- PS: anti-psychotic (SmartCube probability): + (LOQ≤ + <5%)
- SD: sedative hypnotic (SmartCube probability): + (LOQ≤ + <5%)
- UN: uncharacterized CNS activity (SmartCube probability): ++ (5%≤ ++ <25%)

SMILES: CN(C)C[C@H]1OCCc2cccc(F)c21 [Example 84, (S)-1-(8-fluoroisochroman-1-yl)-N,N-dimethylmethanamine]
- minimal effective dose: < 3 mg/kg
- AD: ADHD (SmartCube probability): + (LOQ≤ + <5%)
- AG: analgesic (SmartCube probability): ++ (5%≤ ++ <25%)
- AX: anxiolytic (SmartCube probability): ++ (5%≤ ++ <25%)
- CE: cognitive enhancer (SmartCube probability): ++ (5%≤ ++ <25%)
- DP: anti-depressant (SmartCube probability): ++ (5%≤ ++ <25%)
- MS: mood stabilizer (SmartCube probability): + (LOQ≤ + <5%)
- PS: anti-psychotic (SmartCube probability): ++ (5%≤ ++ <25%)
- SD: sedative hypnotic (SmartCube probability): ++ (5%≤ ++ <25%)
- UN: uncharacterized CNS activity (SmartCube probability): ++++ (50%≤ ++++)

Source: patent publication US10196403B2, “Compounds and compositions and uses thereof” (Sunovion Pharmaceuticals Inc., priority 2016, dated 2019)
